Experimental data taken from patent US10822322B2 (OCEANS LTD., priority 2016, dated 2020).

Assays:
A549 (lung carcinoma) = assay: CIMA assay (tetrazolium reduction, cell viability), A549; assay type: cell-based, human
Method: (§1) Stock solutions of the extracts were prepared in dimethylsulfoxide (DMSO) at 10 mg/mL and stored in 200 μl aliquots at −20° C. until analysis. This preparation ensured that the DMSO delivered to cells in culture never exceeded 1%.
(§2) Prepared extracts were assessed following chronic exposure conditions in which cells were seeded at 2×10^3 cells/well (96 wells-plate) and incubated with test compounds for 72 h. Each compound was evaluated over a range of concentrations (0, 10, 25, 50 or 100 μg/ml). Cell proliferation was initially assessed using a standard colorimetric indicator of metabolic activity (CIMA) assay. In this assay, tetrazole reduction was evaluated as a measure of metabolic function that evaluates mitochondrial activity to determine the extent of cell proliferation within a culture. This assay is based on the reduction of yellow tetrazolium salt to purple formazan by mitochondrial reductases enzyme in viable cells, resulting in a color changed that confers a change in absorbance. Six human cell lines were selected for primary evaluation: U373 (glioblastoma-astrocytoma), A549 (lung carcinoma), THP-1 (acute monocytic leukemia), MCF7 (mammary gland adenocarcinoma), SKOV3 (ovarian adenocarcinoma), and CCD1079SK (fibroblast, noncancerous but proliferating) (see FIG. 2 and Table 2). Table 3 expresses the IC50 for each extract.
(§3) These sub-fractions were again subjected to the bioassay evaluation presented above. Results are expressed in Table 8 as % viability (means±standard deviation of three replicates), with LD50/IC50 values in Table 9. […] The maximum DMSO concentration was 1% at 100 μg/ml with 5% SDS used as a known toxic inducer.

PC3 = assay: CIMA assay (tetrazolium reduction, cell viability), PC3; assay type: cell-based
[1] = system: MCF7 (mammary gland adenocarcinoma); assay: CIMA assay (tetrazolium reduction, cell viability), MCF7; assay type: cell-based, human
Method: as §1
as §2, with “extract. […]” for “extract.”

[2] = system: SKOV3 (ovarian adenocarcinoma); assay: CIMA assay (tetrazolium reduction, cell viability), SKOV3; assay type: cell-based, human
Method: as §1, §2, §3

[3] = system: U373 (glioblastoma-astrocytoma); assay: CIMA assay (tetrazolium reduction, cell viability), U373; assay type: cell-based, human
Method: as §1, §2, §3

[4] = system: THP-1 (acute monocytic leukemia); assay: CIMA assay (tetrazolium reduction, cell viability), THP-1; assay type: cell-based, human
Method: as §1, §2, §3

[5] = system: CCD1079SK (fibroblast, noncancerous but proliferating); assay: CIMA assay (tetrazolium reduction, cell viability), CCD1079SK; assay type: cell-based, human
Method: as §1, §2, §3

[6] = as above; assay type: cell-based, human; settings: human
Method: as §1, §2, §3

MDA-MB = assay: CIMA assay (cell viability), MDA-MB; assay type: cell-based
[7] = Homo sapiens, A549, read-out: average cell viability
[8] = Homo sapiens, PC-3, read-out: average cell viability
[9] = Homo sapiens, SK-OV-3, read-out: average cell viability
[10] = Homo sapiens, U373 MG, read-out: average cell viability
[11] = Homo sapiens, THP-1, read-out: average cell viability

## CCCCCCCCCCCCOS(=O)(=O)[O-].[Na+] [SDS 5%, reference compound]
A549 (lung carcinoma)
  % viability AVG: 66.2%
  cell viability AVG: 68.7%
PC3
  % viability AVG: 94.4%
  cell viability AVG: 77.3%
[1]
  % viability AVG: 93.7%
[2]
  % viability AVG: 90.7%
[3]
  % viability AVG: 78.5%
[4]
  % viability AVG: 39.9%
[5]
  % viability AVG: 87.9%

## CCCCCC(O)C(O)/C=C/C1CCCCCCCC(=O)O1 (stereo not drawn) [compound 31-34-5, 12,13-dihydroxy-10-octadecen-9-olide]
A549 (lung carcinoma); [7]
  viability at 1 µg/mL: 95%
  viability at 10 µg/mL: 93%
  viability at 50 µg/mL: 92%
  viability at 100 µg/mL: 61%
PC3; [8]
  viability at 1 µg/mL: 100%
  viability at 10 µg/mL: 93%
  viability at 50 µg/mL: 97%
  viability at 100 µg/mL: 19%
[2]; [9]
  viability at 1 µg/mL: 97%
  viability at 10 µg/mL: 97%
  viability at 50 µg/mL: 94%
  viability at 100 µg/mL: 85%
[3]; [10]
  viability at 1 µg/mL: 90%
  viability at 10 µg/mL: 85%
  viability at 50 µg/mL: 68%
  viability at 100 µg/mL: 3%
[4]; [11]
  viability at 1 µg/mL: 96%
  viability at 10 µg/mL: 84%
  viability at 50 µg/mL: 68%
  viability at 100 µg/mL: 44%
[6]
  viability at 72 h, 1 µg/mL: 91%
  viability at 72 h, 10 µg/mL: 84%
  viability at 72 h, 50 µg/mL: 90%
  viability at 72 h, 100 µg/mL: 17%
MDA-MB; 10 ug/mL
  fold change viability (AVG): 1.05
MDA-MB; 50 ug/mL
  fold change viability (AVG): 0.72
MDA-MB; 1 Ug/mL
  viability at 1 µg/mL: 101%
MDA-MB; 10 Ug/mL
  viability at 10 µg/mL: 96%
MDA-MB; 50 Ug/mL
  viability at 50 µg/mL: 66%
MDA-MB; 100 Ug/mL
  viability at 100 µg/mL: 20%
